Results reported in patent publication US20040014764A1, “N-myristoyltransferase inhibitor compositions and methods of use” (priority 2002, published 2004).
Like-named read-outs stand apart in the source and are kept apart here.

How the values were obtained:
endogenous NMT = assay: N-myr-GFP localization in transfected CV-1 cells (fluorescence microscopy); assay type: cell-based, monkey
Experimental: Cellular effects of COPP compounds. […] To determine their efficacy in intact cells, a novel assay was developed in which the N-terminus of enhanced green fluorescent protein (GFP) was modified to allow its myristoylation (N-myr-GFP) by endogenous NMT. To begin, the myristoylation sequence […] was added to the N-terminus of green fluorescent protein (N-myr-GFP) using techniques familiar to those practiced in the art. Since GFP is intrinsically fluorescent, the sites of its intracellular distribution can be visualized using fluorescence microscopy. When a plasmid containing the N-myr-GFP sequence is transfected into CV-1 cells, the GFP encoded by this construct is myristoylated by endogenous NMT causing it to localize to the plasma membrane, as indicated by the bright fluorescence at the cell periphery (FIG. 2). […] This method provides evidence that the inhibitors detected in the screen with recombinant NMT can also block endogenous NMT activity in whole cells.

[1] = tested on: T24 human bladder carcinoma cells; assay: Cytotoxicity assay, sulforhodamine B binding; details: T-24, 48 h, read-out: Cytotoxicity IC50
Experimental: To determine the abilities of NMT inhibitors to affect the growth of hyperproliferative cells, cytotoxicity assays were performed using the T24 human bladder carcinoma cell line. […] In these assays, T24 cells growing in tissue culture in the presence of 10% fetal bovine serum are treated with varying concentrations of a test compound for 48 hours. At the end of the treatment period, the number of surviving tumor cells is quantified using any of a variety of methods well known in the field. In these, experiments, the number of surviving cells was determined using the sulforhodamine B binding assay.

recombinant human NMT [2] = target: T1, recombinant human NMT (Homo sapiens, UniProt P30419); assay: NMT screening assay with purified recombinant GST-NMT-1, [3H]-myristoyl-CoA and biotinylated peptide
T1 sequence (P30419 1-496): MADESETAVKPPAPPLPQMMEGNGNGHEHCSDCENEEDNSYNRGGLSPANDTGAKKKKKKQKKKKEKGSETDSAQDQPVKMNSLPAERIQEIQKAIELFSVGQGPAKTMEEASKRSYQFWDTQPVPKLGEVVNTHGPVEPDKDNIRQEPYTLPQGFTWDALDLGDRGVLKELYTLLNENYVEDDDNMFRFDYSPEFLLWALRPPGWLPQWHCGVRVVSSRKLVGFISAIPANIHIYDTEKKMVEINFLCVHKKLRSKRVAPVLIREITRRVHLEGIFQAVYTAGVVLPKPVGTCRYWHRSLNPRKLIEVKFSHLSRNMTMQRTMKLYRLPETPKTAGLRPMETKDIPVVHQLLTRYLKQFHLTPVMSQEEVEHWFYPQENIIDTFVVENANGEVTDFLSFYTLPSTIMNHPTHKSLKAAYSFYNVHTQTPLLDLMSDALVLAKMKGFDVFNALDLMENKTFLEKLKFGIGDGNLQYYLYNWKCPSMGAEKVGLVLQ

A-498 = assay: Antiproliferative activity toward human tumor cell lines; assay type: cell-based; details: A498, A-498, Kidney, mean ± SEM of 4 experiments
Experimental: (§1) Antiproliferative effects of compound 537.
(§2) Additionally, the effects of compound 537 on the proliferation of a panel of human tumor cell lines were determined. […] Of interest, colon-derived HT29 cells were most sensitive to compound 537, and previous work has indicated a close association of activation of Src (which requires myristoylation for activity) and colon cancer (Raju et al., Exp. Cell Res. 235: 145 (1997)).

MCF-7 = assay: as above; assay type: cell-based; details: MCF7, MCF-7, Breast, mean ± SEM of 4 experiments
Experimental: as §1, §2

DU145 = assay: as above; assay type: cell-based; details: DU-145, DU145, Prostate, mean ± SEM of 4 experiments
Experimental: as §1, §2

SKOV3 = assay: as above; assay type: cell-based; details: SK-OV-3, SKOV3, Ovary, mean ± SEM of 4 experiments
Experimental: as §1, §2

Panc-1 = assay: as above; assay type: cell-based; details: Panc-1, Pancreas, mean ± SEM of 4 experiments
Experimental: as §1, §2

HepG2 = assay: as above; assay type: cell-based; details: HepG2, Liver, mean ± SEM of 4 experiments
Experimental: as §1, §2

HT29 = assay: as above; assay type: cell-based; details: HT-29, HT29, Colon, mean ± SEM of 4 experiments
Experimental: as §1, §2

MDA-MB-231 = assay: as above; assay type: cell-based; details: MDA-MB-231, Breast, mean ± SEM of 4 experiments
Experimental: as §1, §2

[3] = tested on: panel of human tumor cell lines; assay: Proliferation of a panel of human tumor cell lines (summary); assay type: cell-based; details: range over the 8 cell lines of TABLE 3, read-out: IC50s across the tumor cell line panel
Experimental: as §1, §2

GST-hNMT-1 = target: T2, GST-hNMT-1 (Homo sapiens, UniProt P30419); assay: Peptide and myristoyl-CoA substrate competition experiments (Michaelis-Menten); assay type: biochemical
T2 construct: made in house; host or cells: E. coli
T2 sequence (P30419 1-496): T1 sequence (P30419 1-496)
Experimental: Development of the NMT screening assay.
Mechanism of inhibition of NMT by COPP compounds. The mechanism of inhibition by compound 537 was examined using peptide and myristoyl-CoA substrate competition experiments with GST-hNMT-l. In the absence of inhibitor, the KM for myristoyl-CoA compares very well with the literature value of 2.6 μM (Rocque et al., J Biol. Chem. 268: 9964 (1993)). […] However, it is well established that the affinity for the peptide is highly sequence-sensitive, so that KMS >100 μM are not unusual. For studies of the ability of compound 537 to interact with the peptide-binding site of NMT, the peptide concentration was varied from 0 to 500 μM, while the myristoyl-CoA concentration was kept constant in the assays. The presence of compound 537 at its IC50 concentration […] the KM for the peptide relative to the solvent control. […] To determine the effects of compound 537 on the myristoyl-CoA binding site, the concentration of myristoyl-CoA was varied from 0 to 100 μM, while the peptide concentration was held constant in the assays. […] Overall, these kinetic analyses indicate that compound 537, and most likely the rest of the COPP family, inhibit NMT activity by competing with the substrate peptide for binding to the enzyme.

recombinant human NMT [4] = target: T1, recombinant human NMT; parameters: made in house; host or cells: E. coli; details: published value (Boutin et al. 1991); read-out: published IC50 concentration for NMT; cited from earlier work

SMILES	IC50 (recombinant human NMT [2])	IC50 [1]	further results
CCCCCCCCCCCCC(O)C(=O)O (stereo not drawn) [2-hydroxymyristic acid, reference compound]	–	–	intracellular distribution of N-myr-GFP (endogenous NMT; millimolar concentrations): redistribution of GFP to the cytosol
COc1ccc(CN2CCN3CCCC3C2C2CCCCC2)cc1 (stereo not drawn) [Compound 486]	419 ± 30 µM	8.1 µM	–
c1cncc(N2CCN3CCCC3C2C2CCCCC2)c1 (stereo not drawn) [Compound 522]	590 ± 127 µM	400 µM	–
CCn1c2ccccc2c2cc(CN3CCN4CCCC4C3C3CCCCC3)ccc21 (stereo not drawn) [Compound 537]	6 µM	1.8 µM	IC50 (A-498): 5.8 ± 1.4 µM; IC50 (MCF-7): 8 ± 0.9 µM; IC50 (DU145): 14.8 ± 2.9 µM; IC50 (SKOV3): 13.2 ± 3.6 µM; IC50 (Panc-1): 12.6 ± 1.3 µM; IC50 (HepG2): 4.4 ± 1.2 µM; IC50 (HT29): 3.7 ± 0.6 µM; IC50 (MDA-MB-231): 11.9 ± 1.3 µM; IC50 [3]: 3.7 to 14.8 µM; intracellular distribution of N-myr-GFP (endogenous NMT; micromolar concentrations): displacement of N-myr-GFP to the cytosol; Peptide Vmax (GST-hNMT-1; in presence of compound at its IC50 concentration, peptide varied 0 to 500 μM, myristoyl-CoA constant): 0.076 ± 0.006 pmol/min; Myristoyl-CoA Vmax (GST-hNMT-1; in presence of compound, myristoyl-CoA varied 0 to 100 μM, peptide constant): 0.034 ± 0.001 pmol/min; mechanism of inhibition with respect to the lipid substrate (GST-hNMT-1; myristoyl-CoA competition): noncompetitive inhibitor; mechanism of inhibition with respect to the peptide substrate (GST-hNMT-1; peptide competition): competitive inhibitor
c1ccc2cc(N3CCN4CCCC4C3C3CCCCC3)ccc2c1 (stereo not drawn) [Compound 542]	42 ± 5 µM	1.3 µM	–
Brc1csc(CN2CCN3CCCC3C2C2CCCCC2)c1 (stereo not drawn) [Compound 555]	> 8000 µM	1.2 µM	–
Cc1ccc2occ(CN3CCN4CCCC4C3C3CCCCC3)c(=O)c2c1 (stereo not drawn) [Compound 591]	> 8000 µM	9.7 µM	–
O=[N+]([O-])c1ccccc1-c1ccc(CN2CCN3CCCC3C2C2CCCCC2)o1 (stereo not drawn) [Compound 615]	45 ± 2 µM	1.4 µM	–
O=[N+]([O-])c1cccc(-c2ccc(CN3CCN4CCCC4C3C3CCCCC3)o2)c1 (stereo not drawn) [Compound 616]	41 ± 1 µM	2.1 µM	–
O=[N+]([O-])c1ccc(-c2ccc(CN3CCN4CCCC4C3C3CCCCC3)o2)cc1 (stereo not drawn) [Compound 617]	36 ± 4 µM	4.6 µM	–
COc1ccc(CN2CCN3CCCC3C2C2CCCCC2)c2ccccc12 (stereo not drawn) [Compound 621]	35 ± 5 µM	0.7 µM	–
COc1ccc2ccccc2c1CN1CCN2CCCC2C1C1CCCCC1 (stereo not drawn) [Compound 622]	28 ± 8 µM	1.5 µM	–
c1cc2ccc3ccc(CN4CCN5CCCC5C4C4CCCCC4)c4ccc(c1)c2c34 (stereo not drawn) [Compound 629]	70 ± 8 µM	3 µM	–
CCCCCCCCCCCCCC(=O)N[C@@H](Cc1ccccc1)C(=O)O [myristoylphenylalanine, reference compound]	–	–	inhibition at 100 µM (recombinant human NMT [2]; read-out: inhibition of recombinant human NMT): ~50%; IC50 (recombinant human NMT [4]): 100 µM

Further lines, with some results ahead:

IC50 (recombinant human NMT [2])	SMILES	IC50 [1]	further results
113 ± 7 µM	C1CCC(C2C3CCCN3CCN2C2CCCCC2)CC1 (stereo not drawn) [Compound 624]	1.6 µM	–
43 ± 4 µM	CC1=C(CCN2CCN3CCCC3C2C2CCCCC2)C(C)(C)CCC1 (stereo not drawn) [Compound 638]	1.4 µM	–
1600 ± 200 µM	COc1ccccc1/C=C/CN1CCN2CCCC2C1C1CCCCC1 (stereo not drawn) [Compound 640]	2.8 µM	–
40 ± 6 µM	CC1C2CCCN2CCN1Cc1cccc(Oc2ccc(Cl)cc2)c1 (stereo not drawn) [Compound 726, 2-[3-(4-chloro-phenoxy)-benzyl]-1-methyl-octahydro-pyrrolo[1,2-a]pyrazine]	1.5 µM	–
47 ± 7 µM	CC1C2CCCN2CCN1Cc1c2ccccc2c(Cl)c2ccccc12 (stereo not drawn) [Compound 766]	4.2 µM	–
